Experimental data published in ChEMBL document CHEMBL1201862, “PubChem BioAssay data set” (2004).
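48-hour exposure; five concentrations; linearly interpolated endpoints. GI50 marks 50% less growth.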 The source made the active and inactive calls. Rule as the data show it: active = GI50 up to about 1.1 µM and inactive = higher.

Key:
Experiment in all cases: NCI anticancer screen, dose series, 48 h
NCI/ADR-RES = tested on: NCI/ADR-RES
SF-268 = tested on: SF-268
SK-MEL-28 = tested on: SK-MEL-28
HT-29 = tested on: HT-29
OVCAR-5 = tested on: OVCAR-5
OVCAR-3 = tested on: OVCAR-3
SK-MEL-2 = tested on: SK-MEL-2
HOP-62 = tested on: HOP-62
OVCAR-8 = tested on: OVCAR-8
786-0 = tested on: 786-0
HOP-92 = tested on: HOP-92
PC-3 = tested on: PC-3
SN12C = tested on: SN12C
DU-145 = tested on: DU-145
LOX IMVI = tested on: LOX IMVI
SNB-19 = tested on: SNB-19
ACHN = tested on: ACHN
BT-549 = tested on: BT-549
NCI-H522 = tested on: NCI-H522
SW-620 = tested on: SW-620

Measured: GI50

O=C1Sc2ccccc2NC1=C(C(=O)c1ccccc1)C(=O)c1ccccc1
inactive: NCI/ADR-RES 22.3 µM | SF-268 14.9 µM | SK-MEL-28 > 100 µM | HT-29 22.5 µM | OVCAR-5 47.1 µM | OVCAR-3 5.18 µM | SK-MEL-2 19.4 µM | HOP-62 8.75 µM | OVCAR-8 22.9 µM | 786-0 26.2 µM | HOP-92 36.6 µM | PC-3 20.6 µM | SN12C 18.2 µM | DU-145 21.2 µM | LOX IMVI 13.5 µM | SNB-19 33 µM | ACHN 22.1 µM | BT-549 35.9 µM | NCI-H522 18.4 µM | SW-620 30.2 µM

O=C[C@@H](CO)O[C@H](C=O)n1cnc2c(=O)nc[nH]c21
inactive: NCI/ADR-RES 438 µM | SF-268 431 µM | SK-MEL-28 369 µM | HT-29 486 µM | OVCAR-5 634 µM | OVCAR-3 290 µM | SK-MEL-2 318 µM | HOP-62 264 µM | OVCAR-8 404 µM | 786-0 607 µM | HOP-92 153 µM | PC-3 376 µM | SN12C 266 µM | DU-145 261 µM | LOX IMVI 86.9 µM | SNB-19 638 µM | ACHN 540 µM | BT-549 282 µM | NCI-H522 146 µM | SW-620 126 µM

Cc1cc(C)n(C(=CC(=O)C(Cl)Cl)n2nc(C)cc2C)n1
inactive: NCI/ADR-RES 2.65 µM | SF-268 6.38 µM | OVCAR-5 3.48 µM | OVCAR-3 3.66 µM | SK-MEL-2 3.69 µM | HOP-62 3.66 µM | OVCAR-8 2.25 µM | 786-0 2.07 µM | HOP-92 9.31 µM | PC-3 11.4 µM | DU-145 5.38 µM | LOX IMVI 1.57 µM | SNB-19 10.7 µM | ACHN 6.05 µM | BT-549 2.45 µM | NCI-H522 1.79 µM | SW-620 3.88 µM

Cc1cc(S(=O)(=O)/N=C(\NN)NCC(=O)NN)c(S)cc1Cl
inactive: NCI/ADR-RES > 10 µM | SF-268 > 10 µM | SK-MEL-28 > 10 µM | HT-29 > 10 µM | OVCAR-5 > 10 µM | OVCAR-3 > 10 µM | SK-MEL-2 > 10 µM | HOP-62 > 10 µM | OVCAR-8 > 10 µM | 786-0 > 10 µM | HOP-92 > 10 µM | PC-3 > 10 µM | SN12C > 10 µM | DU-145 > 10 µM | LOX IMVI > 10 µM | SNB-19 > 10 µM | ACHN > 10 µM | BT-549 > 10 µM | NCI-H522 > 10 µM | SW-620 > 10 µM

O=c1[nH]c(NCc2ccncc2)nc2[nH]cnc12
inactive: NCI/ADR-RES > 100 µM | SF-268 > 100 µM | HT-29 > 100 µM | OVCAR-5 > 100 µM | OVCAR-3 > 100 µM | SK-MEL-2 > 100 µM | HOP-62 > 100 µM | OVCAR-8 > 100 µM | 786-0 > 100 µM | HOP-92 > 100 µM | PC-3 > 100 µM | SN12C > 100 µM | DU-145 > 100 µM | LOX IMVI > 100 µM | SNB-19 > 100 µM | ACHN > 100 µM | BT-549 > 100 µM | NCI-H522 > 100 µM | SW-620 > 100 µM

NS(=O)(=O)c1ccc(CNC(=S)NC(=O)Nc2ccc(Cl)c(Cl)c2)cc1
inactive: NCI/ADR-RES 19 µM | SF-268 21.7 µM | SK-MEL-28 21.6 µM | HT-29 23.2 µM | OVCAR-5 29 µM | SK-MEL-2 14.6 µM | HOP-62 18.6 µM | OVCAR-8 20.3 µM | 786-0 16.8 µM | HOP-92 17.7 µM | PC-3 8.57 µM | SN12C 17.3 µM | DU-145 33.3 µM | LOX IMVI 13.7 µM | SNB-19 19.8 µM | ACHN 17.5 µM | BT-549 16.9 µM | NCI-H522 16 µM | SW-620 18.9 µM

COc1ccc(-c2cc(-c3ccc(Nc4ccnc5cc(Cl)ccc45)cc3)nc(N)c2C#N)cc1
inactive: NCI/ADR-RES > 100 µM | SF-268 > 100 µM | SK-MEL-28 > 100 µM | OVCAR-5 > 100 µM | OVCAR-3 > 100 µM | SK-MEL-2 > 100 µM | HOP-62 > 100 µM | OVCAR-8 > 100 µM | 786-0 > 100 µM | HOP-92 > 100 µM | PC-3 > 100 µM | DU-145 > 100 µM | LOX IMVI > 100 µM | SNB-19 > 100 µM | ACHN > 100 µM | BT-549 > 100 µM | NCI-H522 > 100 µM | SW-620 > 100 µM

COC(=O)C1=C(C(=O)OC)SC2(S1)C1=C(CCCC1)SC(C(=O)OC)=C2C(=O)OC
inactive: NCI/ADR-RES 17.9 µM | SF-268 9.71 µM | SK-MEL-28 9.29 µM | HT-29 2.84 µM | OVCAR-5 12.6 µM | OVCAR-3 6.89 µM | SK-MEL-2 15.5 µM | HOP-62 5.62 µM | OVCAR-8 6.32 µM | HOP-92 7.82 µM | PC-3 5.02 µM | SN12C 2.76 µM | DU-145 1.64 µM | LOX IMVI 2.83 µM | SNB-19 14.5 µM | ACHN 6.05 µM | BT-549 11.7 µM | NCI-H522 1.72 µM | SW-620 2.09 µM

CN1CC[C@@]2(c3cccc(O)c3)CC(=O)/C(=C/c3ccccc3)[C@H]1C2.[O-][Cl+3]([O-])([O-])O
inactive: NCI/ADR-RES 3.85 µM | SF-268 4.28 µM | SK-MEL-28 11.2 µM | HT-29 3.18 µM | OVCAR-5 14.3 µM | SK-MEL-2 19.8 µM | HOP-62 18.5 µM | OVCAR-8 8.22 µM | 786-0 4.44 µM | HOP-92 14.9 µM | PC-3 4.29 µM | SN12C 7.03 µM | DU-145 15.8 µM | LOX IMVI 1.7 µM | SNB-19 7.31 µM | ACHN 8.11 µM | BT-549 11.8 µM | NCI-H522 3.93 µM | SW-620 2.54 µM

CC1=NN=C(N)N/C1=C/C(Sc1ccc(Cl)cc1)c1cccs1 (stereo not given)
inactive: NCI/ADR-RES 18.5 µM | SF-268 10.6 µM | SK-MEL-28 17.5 µM | HT-29 12.3 µM | OVCAR-5 18.5 µM | SK-MEL-2 13.4 µM | HOP-62 12.5 µM | OVCAR-8 16 µM | 786-0 18.5 µM | HOP-92 28.1 µM | PC-3 12.8 µM | SN12C 26.8 µM | DU-145 23.1 µM | LOX IMVI 16.7 µM | SNB-19 16.7 µM | ACHN 12.9 µM | BT-549 37.9 µM | NCI-H522 4.65 µM | SW-620 15.9 µM
